Reference: US9334289B2, “Cephem compound having catechol or pseudo-catechol structure” (SHIONOGI & CO., LTD., priority 2011, dated 2016)

Tests used:
Assay type in all cases: cell-based
P. aeruginosa SR24837 = assay: MIC, CLSI broth microdilution, Test Example 1; details: Pseudomonas aeruginosa, SR24837; PER-1 ESBL producing strain; cation-adjusted Mueller Hinton broth containing human apo-transferrin; 5×10^5 cfu/mL; read-out: Minimum Inhibitory Concentration (MIC) P. aeruginosa SR24837
Method in brief: (§1)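 CLSI broth microdilution; CAMHB + human apo-transferrin; inoculum 5×10^5 cfu/mL; MIC in μg/mL.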

[1] = test system: K. pneumoniae ATCCBAA-1705; assay: MIC, CLSI broth microdilution, Test Example 1; details: Klebsiella pneumoniae, ATCCBAA1705; KPC-2 carbapenemase producing strain; cation-adjusted Mueller Hinton broth containing human apo-transferrin; 5×10^5 cfu/mL; read-out: Minimum Inhibitory Concentration (MIC) K. pneumoniae ATCCBAA-1705
Method in brief: as §1

E. coli ATCCBAA-199 = assay: MIC, CLSI broth microdilution, Test Example 1; details: Escherichia coli, ATCCBAA199; SHV-3 ESBL producing strain; cation-adjusted Mueller Hinton broth containing human apo-transferrin; 5×10^5 cfu/mL; read-out: Minimum Inhibitory Concentration (MIC) E. coli ATCC BAA-199
Method in brief: as §1

P. aeruginosa SR27060 = assay: MIC, CLSI broth microdilution, Test Example 1; details: Pseudomonas aeruginosa, SR27060; IMP-1 MBL producing strain (carbapenem resistance strain); cation-adjusted Mueller Hinton broth containing human apo-transferrin; 5×10^5 cfu/mL; read-out: Minimum Inhibitory Concentration (MIC) P. aeruginosa SR27060
Method in brief: as §1

A. baumannii SR27323 = assay: MIC, CLSI broth microdilution, Test Example 1; details: Acinetobacter baumannii, SR27323; OXA-23, OXA-58 carbapenemase producing strain; cation-adjusted Mueller Hinton broth containing human apo-transferrin; 5×10^5 cfu/mL; read-out: Minimum Inhibitory Concentration (MIC) A. baumannii SR27323
Method in brief: as §1

E. coli ATCCBAA-200 [2] = assay: MIC, CLSI broth microdilution, Test Example 1; details: Escherichia coli, ATCCBAA200; SHV-4 ESBL producing strain; cation-adjusted Mueller Hinton broth containing human apo-transferrin; 5×10^5 cfu/mL; read-out: Minimum Inhibitory Concentration (MIC) E. coli ATCC BAA-200
Method in brief: as §1

P. aeruginosa SR24 = assay: MIC, CLSI broth microdilution, Test Example 1; details: Pseudomonas aeruginosa, SR24; Ceftazidime resistance strain; cation-adjusted Mueller Hinton broth containing human apo-transferrin; 5×10^5 cfu/mL; read-out: Minimum Inhibitory Concentration (MIC) P. aeruginosa SR24
A. baumannii SR01331 = assay: MIC, CLSI broth microdilution, Test Example 2; details: Acinetobacter baumannii, SR01331; PER-1, OXA-23.51 ESBL- & OXA-type carbapenemase producing strain; cation-adjusted Iso-Sensitest broth containing human Apo-transferrin; 5×10^5 cfu/mL; read-out: Minimum Inhibitory Concentration (MIC) A. baumannii SR01331
Method in brief: (§2)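 CLSI microdilution; cation-adjusted Iso-Sensitest broth + human Apo-transferrin; 5×10^5 cfu/mL inoculum; MIC in μg/mL.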

P. aeruginosa SR01332 = assay: MIC, CLSI broth microdilution, Test Example 2; details: Pseudomonas aeruginosa, SR01332; VIM-11 MBL producing strain (carbapenem resistance strain); cation-adjusted Iso-Sensitest broth containing human Apo-transferrin; 5×10^5 cfu/mL; read-out: Minimum Inhibitory Concentration (MIC) P. aeruginosa SR01332
Method in brief: as §2

E. coli SR01337 = assay: MIC, CLSI broth microdilution, Test Example 2; details: Escherichia coli, SR01337; TEM-1 ESBL producing strain; cation-adjusted Iso-Sensitest broth containing human Apo-transferrin; 5×10^5 cfu/mL; read-out: Minimum Inhibitory Concentration (MIC) E. coli SR01337
Method in brief: as §2

E. cloacae NCTC13464 = assay: MIC, CLSI broth microdilution, Test Example 2; details: Enterobacter cloacae, NCTC13464; CTX-M group 9 ESBL producing strain; cation-adjusted Iso-Sensitest broth containing human Apo-transferrin; 5×10^5 cfu/mL; read-out: Minimum Inhibitory Concentration (MIC) E. cloacae NCTC 13464
Method in brief: as §2

P. aeruginosa SR01335 = assay: MIC, CLSI broth microdilution, Test Example 2; details: Pseudomonas aeruginosa, SR01335; VIM-1 like MBL producing strain (carbapenem resistance strain); cation-adjusted Iso-Sensitest broth containing human Apo-transferrin; 5×10^5 cfu/mL; read-out: Minimum Inhibitory Concentration (MIC) P. aeruginosa SR01335
Method in brief: as §2

E. coli ATCCBAA-196 = assay: MIC, CLSI broth microdilution, Test Example 2; details: Escherichia coli, ATCCBAA196; TEM-10 ESBL producing strain; cation-adjusted Iso-Sensitest broth containing human Apo-transferrin; 5×10^5 cfu/mL; read-out: Minimum Inhibitory Concentration (MIC) E. coli ATCC BAA-196
Method in brief: as §2

K. pneumoniae ATCC700603 = assay: MIC, CLSI broth microdilution, Test Example 2; details: Klebsiella pneumoniae, ATCC700603; SHV18 ESBL producing strain; cation-adjusted Iso-Sensitest broth containing human Apo-transferrin; 5×10^5 cfu/mL; read-out: Minimum Inhibitory Concentration (MIC) K. pneumoniae ATCC 700603
Method in brief: as §2

E. coli ATCCBAA-200 [3] = assay: MIC, CLSI broth microdilution, Test Example 2; details: Escherichia coli, ATCCBAA200; SHV-4 ESBL producing strain; cation-adjusted Iso-Sensitest broth containing human Apo-transferrin; 5×10^5 cfu/mL; read-out: Minimum Inhibitory Concentration (MIC) E. coli ATCC BAA-200
Method in brief: as §2

`CC(C)(O/N=C(\C(=O)N[C@@H]1C(=O)N2C(c3nnn[n-]3)=C(C[N+]3(C)[C@@H]4CC[C@H]3C[C@@H](NC(=O)c3ccc(O)c(O)c3Cl)C4)CS[C@H]12)c1nc(N)sc1Cl)C(=O)[O-].[Na+]` (stereo partly drawn) [Compound I-86] gave an MIC (P. aeruginosa SR24837) of no more than 0.031 µg/mL, an MIC [1] of 0.063 µg/mL and an MIC (E. coli ATCCBAA-199) of 0.5 µg/mL. It also gave an MIC (P. aeruginosa SR27060) of 0.25 µg/mL, an MIC (A. baumannii SR27323) of 2 µg/mL and an MIC (E. coli ATCCBAA-200 [2]) of 0.5 µg/mL. The MIC (P. aeruginosa SR24) was 0.063 µg/mL, the MIC (A. baumannii SR01331) was 0.5 µg/mL and the MIC (P. aeruginosa SR01332) was 8 µg/mL. It also gave an MIC (E. coli SR01337) of no more than 0.031 µg/mL, an MIC (E. cloacae NCTC13464) of 0.5 µg/mL and an MIC (P. aeruginosa SR01335) of 4 µg/mL. It also gave an MIC (E. coli ATCCBAA-196) of 0.125 µg/mL, an MIC (K. pneumoniae ATCC700603) of 0.25 µg/mL and an MIC (E. coli ATCCBAA-200 [3]) of 1 µg/mL.
